Test results taken from US20090156477A1, “Compositions and Methods for Regulating Inflammatory Responses” (Massachusetts Institute of Technology, priority 2005, published 2009).
Entries after “also recorded” stand apart in the source; their conditions may differ.

B1: FGF7: Recombinant human FGF7 from Sigma (protein, UniProt P21781 32-194, looked up)
Fibroblast growth factor 7: CNDMTPEQMATNVNCSSPERHTRSYDYMEGGDIRVRRLFCRTQWYLRIDKRGKVKGTQEMKNNYNIMEIRTVAVGIVAIKGVESEFYLAMNKEGKLYAKKECNEDCNFKELILENHYNTYASAKWTHNGGEMFVALNQKGIPVRGKKTKKEQKTAHFLPMAIT

Assays:
Format in all cases: cell-based, human
caveolin-1 = test: Immunohistochemistry for caveolin-1 in Caco-2 cells; conditions: four hours after administration
Experimental: (§1) Caco-2 cells were grown to just prior to confluency on collagen IV coated glass slides. Cells were treated with PBS, FGF1, FGF2 and FGF7, and were incubated at 37° C. in a 5% CO2 humidified incubator for 1 hour, 4 hours, 24 hours or 48 hours, as noted. Cells were washed with PBS, fixed with 3.7% formalin for 10 minutes and washed again with PBS. Cells were treated with 0.1% Triton x-100 for 5 minutes to extract lipids. Cells were washed with PBS and preincubated with PBS supplemented with 1% bovine serum albumin. Primary antibodies were added for 4 hours at room temperature, and cells were washed with PBS. […]
(§2) Cells, except those stained with phalloidin, were washed with PBS and stained with diamidino-2-phenylindole (DAPI) for 5 minutes at room temperature (Molecular Probes). […] Cells were examined by confocal microscopy (ZO-1 and phalloidin only), or by fluorescence microscopy. A Nikon HB10101AF fluorescence microscope was used and images were captured at room temperature using a Hitachi HVC20 camera and Scion image acquisition software. […]

Caco-2 monolayers = test: Monolayer flux of 3 kDa FITC-dextran, Caco-2; conditions: 100 ng/ml ligand on days 10 and 12, flux measured on day 15, PBS 20.28 ± 4.72
Experimental: Cells were plated on transwells as described. Media from the basolateral chamber was removed every other day and replaced with new media. Resistances were followed for 10 days, and either 100 ng/ml FGF2, 100 ng/ml FGF7 or 10 μl PBS were added on days 10 and 12. On day 15, media was removed from both the apical and basolateral chambers. The basolateral chamber was filled with 1 ml HBSS. FITC conjugated to 3 kDa dextran was added to the apical chamber in a volume of 100 μl, at 1 mg/ml in HBSS. After 30, 60 and 90 minutes, 50 μl was removed from the basolateral chamber and transferred to a 96 well plate, and 50 μl HBSS was added to the basolateral chamber. Subsequently, the flux was determined by measurement of FITC-conjugated dextran that crossed the monolayer by measurement with a fluorimeter, stimulating at 480 nm and measuring emission at 530 nm.

TCF/LEF = TCF/LEF assay (TOPFLASH luciferase) in Caco-2 cells; conditions: compared to PBS and FGF1
Experimental: Caco-2 cells were seeded in 12 well plates such that they would reach 90% confluency in 4 days. Two days after plating, Caco-2 cells were transiently transfected with the TOPFLASH (contains 4 TCF/LEF binding elements) luciferase promoter construct (Promega, Madison, Wis.) as well as a thymidine kinase driven renilla luciferase construct (Promega, Madison, Wis.) as a transfection control vector. Each well was transfected with 1.5 μg DNA using Superfect transfection reagent (Promega, Madison, Wis.). Twenty-four hours after transfection, Caco-2 cells were treated with PBS, FGF1, FGF2 or FGF7, for 1 hour, 4 hours or 24 hours. The Caco-2 cells were processed using a dual-luciferase assay system to measure luciferase activity from both the TOPFLASH constructs and the renilla constructs. All results were standardized to the relative transfection efficiencies as observed from the renilla values.

occludin and ZO-1 [1] = test: Immunostaining for occludin and ZO-1 in Caco-2 cells; conditions: 100 ng/ml
Experimental: To determine occludin and ZO-1 expression patterns, cells were plated on transwells as described for TER assays. Media from the basolateral chamber was removed every other day and replaced with new media. Resistances were measured for 10 days, and either 100 ng/ml FGF2, 100 ng/ml FGF7 or 10 μl PBS were added on days 10 and 12. On day 15, media was removed from both the apical and basolateral chambers, and the apical chamber was washed twice with PBS. One ml of 1% (w/v) paraformaldehyde in cacodylate buffer was added to each well, the plates were incubated for 10 minutes at room temperature, and the wells were washed once in PBS. One ml permeabilization media, consisting of 0.2% Triton X-100 and 2% BSA in PBS, was added to each well. After a 10 minute incubation at room temperature, wells were washed three times. 20 μl primary antibodies (rabbit polyclonal anti-human or occludin rabbit polyclonal anti-human ZO-1) diluted 1:20 in 1% goat serum, 0.25% sodium azide in PBS, were added to the apical chamber of three wells per antibody per ligand, and plates were incubated for 1 hour in a humidified chamber. […] Staining was then visualized by fluorescence microscopy. […] A Nikon HB10101AF fluorescence microscope was used to capture images at room temperature using a Hitachi HVC20 camera and Scion image acquisition software. […]

occludin and ZO-1 [2] = test: Immunostaining for occludin and ZO-1 in T84 cells; conditions: 100 ng/ml
Experimental: To determine occludin and ZO-1 expression patterns, cells were plated on transwells as described for TER assays. Media from the basolateral chamber was removed every other day and replaced with new media. Resistances were measured for 10 days, and either 100 ng/ml FGF2, 100 ng/ml FGF7 or 10 μl PBS were added on days 10 and 12. On day 15, media was removed from both the apical and basolateral chambers, and the apical chamber was washed twice with PBS. One ml of 1% (w/v) paraformaldehyde in cacodylate buffer was added to each well, the plates were incubated for 10 minutes at room temperature, and the wells were washed once in PBS. One ml permeabilization media, consisting of 0.2% Triton X-100 and 2% BSA in PBS, was added to each well. After a 10 minute incubation at room temperature, wells were washed three times. 20 μl primary antibodies (rabbit polyclonal anti-human or occludin rabbit polyclonal anti-human ZO-1) diluted 1:20 in 1% goat serum, 0.25% sodium azide in PBS, were added to the apical chamber of three wells per antibody per ligand, and plates were incubated for 1 hour in a humidified chamber. […] Staining was then visualized by fluorescence microscopy. […] A Nikon HB10101AF fluorescence microscope was used to capture images at room temperature using a Hitachi HVC20 camera and Scion image acquisition software.

f-actin = f-actin (phalloidin) staining in Caco-2 cells; conditions: Caco-2 monolayers
Experimental: as §1, §2

phospho-β-catenin = test: Immunohistochemistry for phospho-β-catenin in Caco-2 cells
Experimental: as §1, §2

Molecule	caveolin-1 localization (caveolin-1)	Flux across monolayers (3 kDa-dextran conjugated to FITC; function of emission at 530 nm over time) (Caco-2 monolayers)	TCF/LEF activity (TCF/LEF)	membrane ruffling (tight junction protein staining) (occludin and ZO-1 [1])	membrane ruffling (tight junction protein staining) (occludin and ZO-1 [2])	actin stress fiber formation (f-actin)	phosphorylated β-catenin localization (phospho-β-catenin)
FGF1: Recombinant human FGF1 from Amgen	localized surrounding the nucleus						
FGF2: Recombinant human FGF2, produced as described		47.82 ± 4.64	increased TCF/LEF activity	induced ruffling of cell membranes; also recorded: induced notable membrane ruffling	induced ruffling of cell membranes	induced actin stress fiber formation	clustered around the nucleus
B1		117.14 ± 25.36	increased TCF/LEF activity	induced ruffling of cell membranes; also recorded: induced notable membrane ruffling	induced ruffling of cell membranes	induced actin stress fiber formation	clustered around the nucleus
